For assay [1], the system named is HCT116 MTAP−/− subcutaneous xenograft. Nature of the assay: Xenograft efficacy study, monotherapy. Format: in vivo, mice. On the procedure: An efficacy study in an HCT116 MTAP ^−/− subcutaneous xenograft mouse model was performed to evaluate the antitumor effect of SCR‐7952, with once daily (q.d.) oral dosing of 0.25, 0.5, 1.0, or 3.0 mg/kg, respectively.
Nu/Nu female mice (6–12 weeks old; Beijing Vital River Laboratory Animal Technology Co., Ltd.) were used for in vivo xenograft studies. All experimental procedures involving animals and their care were in accordance with the State Council Regulations for Laboratory Animal Management (Enacted in 1988) and approved by the Institutional Animal Care and Use Committee of Jiangsu Simcere Pharmaceutical Co., Ltd. (IACUC; Approval No. AP‐056).
Subcutaneous injections of HCT116 MTAP ^−/− cells were performed (5 × 10^6 cells in 100 µL) into Nu/Nu female mice. Mice were observed daily for the development of tumors. Six days after tumor implantation, mice were randomly distributed into different groups. SCR‐7952, AG‐270, JNJ‐64619178, or vehicle (water with 5% N‐methylpyrrolidone and 10% solutol HS‐15) were daily administrated by oral gavage. Tumor volumes and body weights were recorded three times per week. Tumor volumes were measured in two dimensions using a caliper, and the volume was expressed in mm^3 using the formula: V = (L × W × W)/2, where V is tumor volume, L is tumor length (the longest tumor dimension), and W is tumor width (perpendicular to L). The tumor growth inhibition rate (TGI%) of each dosing group was calculated according to the following formula: %TGI = (1 − (V t(treatment group) − V 0(treatment group))/(V t(vehicle group) − V 0(vehicle group))) × 100%, where V t is average tumor volume of a dosing group on a specific day, V 0 is average tumor volume of a dosing group on the initial day. At the end of the study, plasma and tumor tissues were collected and stored at −80°C for further measurement.

The target in the next assay is EDNRA (Homo sapiens, UniProt P25101). Nature of the assay: Mini-profiling panel, GPCR. As to conditions: GPCR Targets. In kind it is cell-based.
Sequence of EDNRA (P25101 21-427, species assumed): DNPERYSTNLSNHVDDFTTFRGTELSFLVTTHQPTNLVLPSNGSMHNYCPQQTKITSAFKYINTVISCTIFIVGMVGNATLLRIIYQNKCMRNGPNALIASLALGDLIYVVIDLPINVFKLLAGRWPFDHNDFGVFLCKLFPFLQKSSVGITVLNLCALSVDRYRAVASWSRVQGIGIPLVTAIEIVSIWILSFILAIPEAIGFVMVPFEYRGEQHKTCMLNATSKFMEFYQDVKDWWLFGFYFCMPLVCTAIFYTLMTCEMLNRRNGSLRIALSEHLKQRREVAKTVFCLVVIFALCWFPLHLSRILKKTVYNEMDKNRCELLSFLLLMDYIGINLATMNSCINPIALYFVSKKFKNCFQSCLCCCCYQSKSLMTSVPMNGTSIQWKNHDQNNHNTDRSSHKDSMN
The next assay has as its target T1, MAT2A (Homo sapiens, UniProt P31153).
T1 construct: purchased Pharmaron 210405‐HWR‐20210429
Nature of the assay: MAT2A enzymatic activity, biochemical assay (phosphate release). The protocol: The test compound was prepared in dimethyl sulfoxide (DMSO). […] Then, 40 µL of enzyme dilution was added and the mixture was incubated for 120 min at room temperature. The enzymatic assay was initiated by adding 40 µL of substrate mix (a final dose of 400 µM ATP and a final dose of 200 µM L‐methionine in assay buffer), and the mixture was incubated for a further 90 min at room temperature. The liberated phosphate released by the enzyme in stoichiometric amounts by the production of SAM was measured using the Phosphate Assay Kit—PiColorLock™ (Abcam, UK). Velocity curves were fit to the standard Michaelis‐Menten equation to yield V max and K m.

The target of a further assay is ADRB2 (Homo sapiens, UniProt P07550). Nature of the assay: Mini-profiling panel, GPCR. Format: cell-based. The conditions noted are these: GPCR Targets.
Sequence of ADRB2 (P07550 whole entry, species assumed): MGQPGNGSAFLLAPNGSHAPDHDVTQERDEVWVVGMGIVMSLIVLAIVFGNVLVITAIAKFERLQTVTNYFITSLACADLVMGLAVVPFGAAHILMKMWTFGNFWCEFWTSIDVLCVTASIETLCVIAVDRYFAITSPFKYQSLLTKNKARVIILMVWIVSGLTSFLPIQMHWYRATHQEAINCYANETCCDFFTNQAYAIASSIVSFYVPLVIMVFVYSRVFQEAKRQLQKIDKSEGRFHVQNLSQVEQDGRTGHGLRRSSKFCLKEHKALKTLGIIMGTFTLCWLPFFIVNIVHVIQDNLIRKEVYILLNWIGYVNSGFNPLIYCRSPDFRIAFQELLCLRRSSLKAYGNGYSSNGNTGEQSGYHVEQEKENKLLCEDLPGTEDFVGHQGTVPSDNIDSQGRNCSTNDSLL
Another assay deals with ADRB1 (Homo sapiens, UniProt P08588). Nature of the assay: Mini-profiling panel, GPCR. In kind it is cell-based. The conditions noted are these: GPCR Targets.
Sequence of ADRB1 (P08588 whole entry, species assumed): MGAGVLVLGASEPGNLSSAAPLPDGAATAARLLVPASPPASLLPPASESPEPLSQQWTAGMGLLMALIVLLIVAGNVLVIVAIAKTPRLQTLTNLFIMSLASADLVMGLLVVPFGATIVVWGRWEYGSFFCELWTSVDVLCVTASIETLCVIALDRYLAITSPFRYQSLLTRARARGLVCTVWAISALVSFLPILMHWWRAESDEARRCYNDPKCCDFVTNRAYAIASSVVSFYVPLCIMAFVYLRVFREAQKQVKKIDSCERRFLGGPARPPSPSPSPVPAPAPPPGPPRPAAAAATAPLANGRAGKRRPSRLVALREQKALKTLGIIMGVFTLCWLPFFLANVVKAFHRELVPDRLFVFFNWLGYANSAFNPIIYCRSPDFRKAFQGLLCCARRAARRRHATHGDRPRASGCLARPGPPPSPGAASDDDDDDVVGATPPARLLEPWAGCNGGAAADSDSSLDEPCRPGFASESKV
For the next assay, the system named is MIA PaCa-2. Nature of the assay: Proliferation assay (CellTiter-Glo). In kind it is cell-based. The conditions noted are these: Homo sapiens, MIA PaCa-2, 144 h; MTAP-deleted, 6-day; read-out: IC50, anti-proliferation MIA PaCa-2. The protocol:
(§1) HCT116 colon carcinoma parental (WT) cells with MTAP ^−/− isogenic clone were established by KYinno Biotechnology Co., Ltd. (Beijing, China). A549, MIA PaCa‐2, and WI‐38 cell lines were obtained from ATCC. NCI‐H838 was obtained from Cobioer Biosciences. HCT116 WT and KO MTAP cells were cultured in McCoy's 5A media containing 10% FBS. A549 cells were cultured in DMEM media containing 10% FBS. MIA PaCa‐2 cells were cultured in DMEM media containing 10% FBS and 2.5% horse serum. NCI‐H838 cells were cultured in PRMI 1640 media containing 10% FBS. WI‐38 cells were cultured in EMEM media containing 10% FBS.
(§2) Cells were plated in 96‐well cell culture plates and allowed to attach overnight at 37°C in 5% CO2. Compounds diluted in DMSO were added to cells in a dose–response format for 6 days. The final concentration of DMSO was 0.1% in media. Cell proliferation was measured using CellTiter‐Glo Cell Viability Assay (Promega). The IC50 values were calculated using the GraphPad Prism 9. Drug combination effects were analyzed using Combenefit software.[45]
On the technique in general: ATP-based viability assays read luminescence as a measure of living cells.

Another assay relates to A549. Nature of the assay: Proliferation assay (CellTiter-Glo). Format: cell-based. As to conditions: Homo sapiens, A549, 144 h; MTAP-deleted, 6-day; read-out: IC50, anti-proliferation A549. The protocol:
as §1, §2

Another assay deals with HCT116 WT cells. Nature of the assay: Proliferation assay (CellTiter-Glo). The conditions noted are these: Homo sapiens, HCT-116, 144 h; 6-day treatment; read-out: IC50, anti-proliferation HCT116 WT. Format: cell-based. The protocol: as §1, §2
The subject of another assay is HCT116 MTAP−/− cells. Nature of the assay: Proliferation assay (CellTiter-Glo). In kind it is cell-based. The protocol:
as §1, §2

For assay [2], the system named is WI-38 (human fetal lung fibroblast cells). Nature of the assay: Proliferation assay (CellTiter-Glo). The conditions noted are these: MTAP WT; read-out: IC50, anti-proliferation WI-38. Format: cell-based. The protocol: as §1, §2
A further assay concerns NCI-H838. Nature of the assay: Proliferation assay (CellTiter-Glo). Format: cell-based. As to conditions: Homo sapiens, NCI-H838, 144 h; MTAP-deleted, 6-day; read-out: IC50, anti-proliferation NCI-H838. On the procedure: as §1, §2
For another assay, the target named is HRH1 (Homo sapiens, UniProt P35367). Nature of the assay: Mini-profiling panel, GPCR. Format: cell-based. The conditions noted are these: GPCR Targets.
Sequence of HRH1 (P35367 whole entry, species assumed): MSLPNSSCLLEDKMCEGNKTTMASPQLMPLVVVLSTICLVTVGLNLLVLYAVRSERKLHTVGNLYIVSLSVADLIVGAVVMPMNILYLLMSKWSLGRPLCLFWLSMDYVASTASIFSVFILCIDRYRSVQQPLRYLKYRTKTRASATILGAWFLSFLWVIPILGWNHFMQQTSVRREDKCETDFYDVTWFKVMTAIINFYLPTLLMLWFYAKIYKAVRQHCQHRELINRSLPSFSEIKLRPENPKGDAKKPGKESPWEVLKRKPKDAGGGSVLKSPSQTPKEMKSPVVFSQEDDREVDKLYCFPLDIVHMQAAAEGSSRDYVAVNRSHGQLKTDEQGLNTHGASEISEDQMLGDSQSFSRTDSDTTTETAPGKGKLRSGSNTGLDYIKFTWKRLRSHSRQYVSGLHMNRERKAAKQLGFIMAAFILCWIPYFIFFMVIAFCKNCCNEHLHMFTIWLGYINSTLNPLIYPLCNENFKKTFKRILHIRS
A further assay deals with CCKAR (Homo sapiens, UniProt P32238). Nature of the assay: Mini-profiling panel, GPCR. Format: cell-based. The conditions noted are these: GPCR Targets.
Sequence of CCKAR (P32238 whole entry, species assumed): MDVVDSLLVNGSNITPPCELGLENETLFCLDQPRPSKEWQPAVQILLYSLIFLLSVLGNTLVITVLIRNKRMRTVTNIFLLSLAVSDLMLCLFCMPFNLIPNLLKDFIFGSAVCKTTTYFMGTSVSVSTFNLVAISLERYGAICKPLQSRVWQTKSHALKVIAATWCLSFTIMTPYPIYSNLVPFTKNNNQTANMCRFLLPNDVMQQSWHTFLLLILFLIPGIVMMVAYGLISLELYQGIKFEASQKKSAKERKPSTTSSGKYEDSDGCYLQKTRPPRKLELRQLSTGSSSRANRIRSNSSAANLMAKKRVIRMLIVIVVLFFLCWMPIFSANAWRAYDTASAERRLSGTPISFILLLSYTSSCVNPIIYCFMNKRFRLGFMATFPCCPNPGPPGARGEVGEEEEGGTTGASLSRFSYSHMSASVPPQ

T1 sequence (P31153 whole entry): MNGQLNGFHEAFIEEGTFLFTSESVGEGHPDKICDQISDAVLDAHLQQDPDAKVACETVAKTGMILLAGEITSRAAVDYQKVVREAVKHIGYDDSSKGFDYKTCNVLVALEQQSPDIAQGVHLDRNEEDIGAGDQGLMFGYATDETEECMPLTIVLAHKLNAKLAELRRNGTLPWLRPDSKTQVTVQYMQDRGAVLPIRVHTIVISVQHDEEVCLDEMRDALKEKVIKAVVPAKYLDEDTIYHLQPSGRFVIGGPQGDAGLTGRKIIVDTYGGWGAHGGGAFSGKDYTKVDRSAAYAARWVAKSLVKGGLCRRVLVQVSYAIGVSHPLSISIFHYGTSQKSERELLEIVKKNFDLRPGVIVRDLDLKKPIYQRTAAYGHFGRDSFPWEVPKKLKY

Regarding `Cn1cnc2c(=O)n(-c3cccnc3C3CC3)c3cc(Cl)ccc3c21` [SCR‐7952, 7‐chloro‐5‐(2‐cyclopropylpyridin‐3‐yl)‐1‐methyl‐1,5‐dihydro‐4H‐imidazo[4,5‐c]quinolin‐4‐one], the TGI (usually how far tumour growth fell short of that in controls) is listed as 60.0% in [1] (SCR-7952 0.5 mg/kg oral q.d.), 62.7% in assay [1] (SCR-7952 1 mg/kg oral q.d.) and 82.9% in assay [1] (SCR-7952 3.0 mg/kg oral q.d.). In addition, the EC50 at EDNRA (read-out: EDNRA Agonism EC50), on ADRB2 (read-out: ADRB2 Agonism EC50), on ADRB1 (read-out: ADRB1 Agonism EC50), at HRH1 (read-out: HRH1 Agonism EC50) and at CCKAR (read-out: CCKAR Agonism EC50) was above 10000 nM throughout. In addition, the IC50 at EDNRA (read-out: EDNRA Antagonism IC50) was above 10000 nM; at MAT2A (biochemical assay, read-out: IC50, MAT2A enzyme) it was 18.7 nM; at ADRB2 (read-out: ADRB2 Antagonism IC50), above 10000 nM; on ADRB1 (read-out: ADRB1 Antagonism IC50), above 10000 nM; in the assay with MIA PaCa-2, 19.7 nM; in the assay with A549 it was 123 nM. Also, the IC50 in the assay on HCT116 WT cells was 488 nM; with HCT116 MTAP−/− cells (Homo sapiens, HCT-116, 144 h, 6-day treatment, read-out: IC50, anti-proliferation HCT116 MTAP−/−) it was 34.4 nM; in assay [2], 4310 nM; with NCI-H838 it was 4.3 nM; at HRH1 (read-out: HRH1 Antagonism IC50), above 10000 nM; at CCKAR (read-out: CCKAR Antagonism IC50), above 10000 nM. Besides, the “fold more potent than AG-270 on MAT2A enzymatic activity” value at MAT2A amounted to 3.7 fold. The Ki (commonly the dissociation constant of the complex between target and ligand, obtained from inhibition or displacement) at MAT2A (in the presence of substrate methionine, Michaelis–Menten approach) was 14.5 nM. This compound yielded a α value on MAT2A (noncompetitive inhibition for methionine) of 1.193. Besides, in the assay on HCT116 MTAP−/− cells (HCT116 MTAP−/− cells, 34.4 vs. 300.4 nM), the “fold difference of antiproliferative effect of SCR-7952 and AG-270” value is 8.7 fold.

The values above are taken from PMC11413503, “SCR‐7952, a highly selective MAT2A inhibitor, demonstrates synergistic antitumor activities in combination with the S‐adenosylmethionine‐competitive or the methylthioadenosine‐cooperative protein arginine methyltransferase 5 inhibitors in methylthioadenosine phosphorylase‐deleted tumors” (MedComm, 2024).
